Measured values taken from US10294202B2, “Pyrrolidinones as herbicides” (FMC Corporation, priority 2013, dated 2019).

Legend:
[1] = test system: barnyardgrass; assay: Test A pre-/postemergence herbicide test; assay type: in vivo, Echinochloa crus-galli
Outline: (§1)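 Seeds sown in loam soil/sand blend received a preemergence directed soil spray of test chemical in non-phytotoxic solvent with surfactant; postemergence plants (2–10 cm, one- to two-leaf stage) were sprayed with the same formulation. After about 10 days in greenhouse, injury was rated visually versus untreated controls, 0 (no effect) to 100 (complete control).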

[2] = test system: pigweed; assay: Test A pre-/postemergence herbicide test; assay type: in vivo, Amaranthus retroflexus
Outline: as §1

[3] = test system: corn; assay: Test A pre-/postemergence herbicide test; assay type: in vivo, Zea mays; settings: Postemergence
Outline: as §1

[4] = test system: rice; assay: Test B flooded paddy test; assay type: in vivo, Oryza sativa; settings: 500 g ai/ha, Flood; scale of 0 to 100 where 0 is no effect and 100 is complete control
Outline: (§2)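 Paddy-water application at a 3 cm flood, young plants having two leaves. Water level maintained; greenhouse, 13–15 days; visual 0–100 control rating.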

[5] = test system: ducksalad; assay: Test B flooded paddy test; assay type: in vivo, Heteranthera limosa; settings: 500 g ai/ha, Flood; scale of 0 to 100 where 0 is no effect and 100 is complete control
Outline: as §2

[6] = test system: barnyardgrass; assay: Test B flooded paddy test; assay type: in vivo, Echinochloa crus-galli; settings: 500 g ai/ha, Flood; scale of 0 to 100 where 0 is no effect and 100 is complete control
Outline: as §2

[7] = test system: corn; assay: Test C pre-/postemergence herbicide test; assay type: in vivo, Zea mays
Outline: (§3)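 Visual rating, 0 (no effect) to 100 (complete control), versus untreated controls after 13 to 15 days in the greenhouse. Pre: seeds in loam/sand, sprayed at planting. Post: 1- to 4-leaf plants (2 to 18 cm) in peat-based mix. Compounds in non-phytotoxic solvent plus surfactant.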

[8] = test system: foxtail, giant; assay: Test C pre-/postemergence herbicide test; assay type: in vivo, Setaria faberii
Outline: as §3

[9] = test system: nutsedge, yellow; assay: Test C pre-/postemergence herbicide test; assay type: in vivo, Cyperus esculentus
Outline: as §3

[10] = test system: soybean; assay: Test C pre-/postemergence herbicide test; assay type: in vivo, Glycine max
Outline: as §3

[11] = test system: barnyardgrass; assay: Test C pre-/postemergence herbicide test; assay type: in vivo, Echinochloa crus-galli
Outline: as §3

[12] = test system: oilseed rape; assay: Test C pre-/postemergence herbicide test; assay type: in vivo, Brassica napus
Outline: as §3

[13] = Postemergence, 500 g ai/ha, 0 to 100 scale (0 no effect, 100 complete control)
[14] = Preemergence, 125 g ai/ha, 0 to 100 scale where 0 is no effect and 100 is complete control
[15] = preemergence, 500 g ai/ha, 0 to 100 scale, 0 is no effect and 100 is complete control
[16] = Postemergence, 31 g ai/ha, scale 0 to 100 (0 no effect, 100 complete control)
[17] = Postemergence, 62 g ai/ha, scale 0 (no effect) to 100 (complete control)
[18] = Postemergence, 125 g ai/ha, scale 0 to 100 (0 no effect, 100 complete control)
[19] = Postemergence, 250 g ai/ha, scale 0 to 100 (0 no effect, 100 complete control)
[20] = Preemergence, 31 g ai/ha, scale 0 to 100, 0 is no effect and 100 is complete control
[21] = Preemergence, 62 g ai/ha, scale 0 to 100 (0 no effect, 100 complete control)
[22] = Preemergence, 125 g ai/ha, scale 0 to 100 (0 no effect, 100 complete control)

## O=C1NCC(c2cc(F)cc(F)c2)C1C(=O)Nc1cccc(F)c1F (racemic) [Compound 279]
[1]; Postemergence, 125 g ai/ha, 0 to 100 scale, 0 is no effect, 100 is complete control
  Plant response rating, Barnyardgrass: 80
[1]; [13]
  Plant response rating, Barnyardgrass: 90
[1]; [14]
  Plant response rating, Barnyardgrass: 80
[1]; [15]
  Plant response rating, Barnyardgrass: 90
[2]; Postemergence, 125 g ai/ha, visual rating on 0 to 100 scale (0 no effect, 100 complete control), approx. 10 days
  Plant response rating, Pigweed: 0
[2]; [13]
  Plant response rating, Pigweed: 0
[2]; [14]
  Plant response rating, Pigweed: 0
[2]; [15]
  Plant response rating, Pigweed: 40
[3]; 125 g ai/ha, 0 to 100 scale, 0 is no effect, 100 is complete control
  Plant response rating, Corn: 40
[3]; 500 g ai/ha, 0 to 100 scale (0 no effect, 100 complete control)
  Plant response rating, Corn: 70
[4]
  Plant response rating, Rice: 10
[5]
  Plant response rating, Ducksalad: 100
[6]
  Plant response rating, Barnyardgrass: 75
[7]; [16]
  Plant response rating, Corn: 0
[7]; [17]
  Plant response rating, Corn: 0
[7]; [18]
  Plant response rating, Corn: 0
[7]; [19]
  Plant response rating, Corn: 0
[7]; [20]
  Corn plant response rating: 0
[7]; [21]
  Corn plant response rating: 0
[7]; [22]
  Plant response rating, Corn: 5
[7]; Preemergence, 250 g ai/ha
  Plant response rating (scale of 0 to 100), Corn: 65
[8]; [16]
  Plant response rating, Foxtail, Giant: 0
[8]; [17]
  Plant response rating, Foxtail, Giant: 30
[8]; [18]
  Plant response rating, Foxtail, Giant: 90
[8]; [19]
  Plant response rating, Foxtail, Giant: 90
[8]; [20]
  Foxtail, Giant plant response rating: 90
[8]; [21]
  Foxtail, Giant plant response rating: 95
[8]; [22]
  Plant response rating, Foxtail, Giant: 98
[8]; Preemergence, 250 g ai/ha
  Plant response rating (scale of 0 to 100), Foxtail, Giant: 98
[9]; [16]
  Plant response rating, Nutsedge, Yellow: 0
[9]; [17]
  Plant response rating, Nutsedge, Yellow: 0
[9]; [18]
  Plant response rating, Nutsedge, Yellow: 0
[9]; [19]
  Plant response rating, Nutsedge, Yellow: 0
[9]; [20]
  Nutsedge, Yellow plant response rating: 0
[9]; [21]
  Nutsedge, Yellow plant response rating: 0
[9]; [22]
  Plant response rating, Nutsedge, Yellow: 0
[9]; Preemergence, 250 g ai/ha
  Plant response rating (scale of 0 to 100), Nutsedge, Yellow: 55
[10]; [16]
  Plant response rating, Soybean: 40
[10]; [17]
  Plant response rating, Soybean: 10
[10]; [18]
  Plant response rating, Soybean: 0
[10]; [19]
  Plant response rating, Soybean: 10
[10]; [20]
  Soybean plant response rating: 0
[10]; [21]
  Soybean plant response rating: 0
[10]; [22]
  Plant response rating, Soybean: 0
[10]; Preemergence, 250 g ai/ha
  Plant response rating (scale of 0 to 100), Soybean: 10
[11]; [16]
  Plant response rating, Barnyardgrass: 15
[11]; [17]
  Plant response rating, Barnyardgrass: 55
[11]; [18]
  Plant response rating, Barnyardgrass: 85
[11]; [19]
  Plant response rating, Barnyardgrass: 85
[11]; [20]
  Barnyardgrass plant response rating: 80
[11]; [21]
  Barnyardgrass plant response rating: 95
[11]; [22]
  Plant response rating, Barnyardgrass: 95
[11]; Preemergence, 250 g ai/ha
  Plant response rating (scale of 0 to 100; 0 is no effect, 100 is complete control), Barnyardgrass: 98
[12]; [16]
  Plant response rating, Oilseed Rape: 0
[12]; [17]
  Plant response rating, Oilseed Rape: 30
[12]; [18]
  Plant response rating, Oilseed Rape: 0
[12]; [19]
  Plant response rating, Oilseed Rape: 0
[12]; [20]
  Oilseed Rape plant response rating: 0
[12]; [21]
  Oilseed Rape plant response rating: 0
[12]; [22]
  Plant response rating, Oilseed Rape: 30
[12]; Preemergence, 250 g ai/ha
  Plant response rating (scale of 0 to 100), Oilseed Rape: 60
